Earlier results in patent publication US20160168384A1, “PORPHYRINOID COMPONENTS, METHOD AND APPARATUS FOR WATER PHOTODISINFECTION” (NIMARTECH LIMITED, priority 2013, published 2016).

Tested on: faecal coliforms
Details: wastewater; micromolar porphyrin; visible light or sunlight, about 4 hours

SMILES: C[n+]1ccc(-c2c3nc(c(-c4cc[n+](C)cc4)c4ccc([nH]4)c(-c4cc[n+](C)cc4)c4nc(c(-c5cc[n+](C)cc5)c5ccc2[nH]5)C=C4)C=C3)cc1 [Sample C1, meso-tetra(N,N,N,N-methyl-pyridyl)porphine]
- decrease of coliform counts: at least 5 logs
